Results published in US12168763B2, “Microorganisms and methods for reducing bacterial contamination” (Melio Peptide Systems Inc., priority 2020, dated 2024).

What follows are substances tested on L. fermentum NCCB 46038 (assay: Soft-agar overlay assay of S. cerevisiae BY4742 secreting persulcatusin variants from pHVXU plasmids). Settings: alanine scanning of persulcatusin; relative to wild-type; soft-agar overlay.
For “N7A: persulcatusin (SEQ ID NO: 1) alanine-scan variant N7A (GFGCPFAQGACHRHCRSIGRRGGYCAGLFKQTCTCYSR; listed as Ixodes persulcatus) [Mutation N7A]”, the Change in activity was “−”. With “C35A: persulcatusin (SEQ ID NO: 1) alanine-scan variant C35A (GFGCPFNQGACHRHCRSIGRRGGYCAGLFKQTCTAYSR; listed as Ixodes persulcatus) [Mutation C35A]” the Change in activity was “−”. With “Y36A: persulcatusin (SEQ ID NO: 1) alanine-scan variant Y36A (GFGCPFNQGACHRHCRSIGRRGGYCAGLFKQTCTCASR; listed as Ixodes persulcatus) [Mutation Y36A]” the Change in activity was “−”. In the case of “Y24A: persulcatusin (SEQ ID NO: 1) alanine-scan variant Y24A (GFGCPFNQGACHRHCRSIGRRGGACAGLFKQTCTCYSR; listed as Ixodes persulcatus) [Mutation Y24A]”, the Change in activity is reported as “−”. With “C11A: persulcatusin (SEQ ID NO: 1) alanine-scan variant C11A (GFGCPFNQGAAHRHCRSIGRRGGYCAGLFKQTCTCYSR; listed as Ixodes persulcatus) [Mutation C11A]” the Change in activity was “−”. For “G1A: persulcatusin (SEQ ID NO: 1) alanine-scan variant G1A (AFGCPFNQGACHRHCRSIGRRGGYCAGLFKQTCTCYSR; listed as Ixodes persulcatus) [Mutation G1A]”, the Change in activity was “−”. For “Engineered persulcatusin with [Mutation F29A, Engineered persulcatusin with [F29A]]”, the Change in activity was “+”. “H12A: persulcatusin (SEQ ID NO: 1) alanine-scan variant H12A (GFGCPFNQGACARHCRSIGRRGGYCAGLFKQTCTCYSR; listed as Ixodes persulcatus) [Mutation H12A]” was tested, and the Change in activity was “−”. For “C25A: persulcatusin (SEQ ID NO: 1) alanine-scan variant C25A (GFGCPFNQGACHRHCRSIGRRGGYAAGLFKQTCTCYSR; listed as Ixodes persulcatus) [Mutation C25A]”, the Change in activity was “−”. “Engineered persulcatusin with [Mutation R16A, Engineered persulcatusin with [R16A]]” was tested, and the Change in activity was “+”. “Engineered persulcatusin with [Mutation R20A, Engineered persulcatusin with [R20A]]” was tested, and the Change in activity was “+”. With “G27A: persulcatusin (SEQ ID NO: 1) alanine-scan variant G27A (GFGCPFNQGACHRHCRSIGRRGGYCAALFKQTCTCYSR; listed as Ixodes persulcatus) [Mutation G27A]” the Change in activity was “−”. In the case of “Engineered persulcatusin with [Mutation R13A, Engineered persulcatusin with [R13A]]”, the Change in activity is reported as “+”. For “C4A: persulcatusin (SEQ ID NO: 1) alanine-scan variant C4A (GFGAPFNQGACHRHCRSIGRRGGYCAGLFKQTCTCYSR; listed as Ixodes persulcatus) [Mutation C4A]”, the Change in activity was “−”. In the case of “Engineered persulcatusin with [Mutation R38A, Engineered persulcatusin with [R38A]]”, the Change in activity is reported as “+”. “C15A: persulcatusin (SEQ ID NO: 1) alanine-scan variant C15A (GFGCPFNQGACHRHARSIGRRGGYCAGLFKQTCTCYSR; listed as Ixodes persulcatus) [Mutation C15A]” was tested, and the Change in activity was “−”. In the case of “T32A: persulcatusin (SEQ ID NO: 1) alanine-scan variant T32A (GFGCPFNQGACHRHCRSIGRRGGYCAGLFKQACTCYSR; listed as Ixodes persulcatus) [Mutation T32A]”, the Change in activity is reported as “−”. In the case of “Q31A: persulcatusin (SEQ ID NO: 1) alanine-scan variant Q31A (GFGCPFNQGACHRHCRSIGRRGGYCAGLFKATCTCYSR; listed as Ixodes persulcatus) [Mutation Q31A]”, the Change in activity is reported as “−”. For “Engineered persulcatusin with [Mutation L28A, Engineered persulcatusin with [L28A]]”, the Change in activity was “+”. “G22A: persulcatusin (SEQ ID NO: 1) alanine-scan variant G22A (GFGCPFNQGACHRHCRSIGRRAGYCAGLFKQTCTCYSR; listed as Ixodes persulcatus) [Mutation G22A]” was tested, and the Change in activity was “−”. With “H14A: persulcatusin (SEQ ID NO: 1) alanine-scan variant H14A (GFGCPFNQGACHRACRSIGRRGGYCAGLFKQTCTCYSR; listed as Ixodes persulcatus) [Mutation H14A]” the Change in activity was “−”. In the case of “K30A: persulcatusin (SEQ ID NO: 1) alanine-scan variant K30A (GFGCPFNQGACHRHCRSIGRRGGYCAGLFAQTCTCYSR; listed as Ixodes persulcatus) [Mutation K30A]”, the Change in activity is reported as “−”. For “F2A: persulcatusin (SEQ ID NO: 1) alanine-scan variant F2A (GAGCPFNQGACHRHCRSIGRRGGYCAGLFKQTCTCYSR; listed as Ixodes persulcatus) [Mutation F2A]”, the Change in activity was “−”. “C33A: persulcatusin (SEQ ID NO: 1) alanine-scan variant C33A (GFGCPFNQGACHRHCRSIGRRGGYCAGLFKQTATCYSR; listed as Ixodes persulcatus) [Mutation C33A]” was tested, and the Change in activity was “−”. “Q8A: persulcatusin (SEQ ID NO: 1) alanine-scan variant Q8A (GFGCPFNAGACHRHCRSIGRRGGYCAGLFKQTCTCYSR; listed as Ixodes persulcatus) [Mutation Q8A]” was tested, and the Change in activity was “−”. For “S17A: persulcatusin (SEQ ID NO: 1) alanine-scan variant S17A (GFGCPFNQGACHRHCRAIGRRGGYCAGLFKQTCTCYSR; listed as Ixodes persulcatus) [Mutation S17A]”, the Change in activity was “−”. “Engineered persulcatusin with [Mutation F6A, Engineered persulcatusin with [F6A]]” was tested, and the Change in activity was “+”. With “G23A: persulcatusin (SEQ ID NO: 1) alanine-scan variant G23A (GFGCPFNQGACHRHCRSIGRRGAYCAGLFKQTCTCYSR; listed as Ixodes persulcatus) [Mutation G23A]” the Change in activity was “−”.

Same assay, conditions: random mutagenesis clones of persulcatusin; increase of growth inhibition zones
In the case of “Engineered persulcatusin with [Mutation S7-140-9, Engineered persulcatusin with [A26D]]”, the “Increase in Activity” value is reported as “+”. With “Engineered persulcatusin with [Mutation S7-140-10, Engineered persulcatusin with [R13S/R21G]]” the “Increase in Activity” value was “+”. “Engineered persulcatusin with [Mutation S7-176-4-1, Engineered persulcatusin with [F6V/R13S/A26D]]” was tested, and the “Increase in Activity” value was “++”. With “Engineered persulcatusin with [Mutation S7-176-3-1, Engineered persulcatusin with [R13S/R21S]]” the “Increase in Activity” value was “++”. In the case of “Engineered persulcatusin with [Mutation S7-140-42, Engineered persulcatusin with [N7D/F29L]]”, the “Increase in Activity” value is reported as “++”. In the case of “Engineered persulcatusin with [Mutation S7-140-3, Engineered persulcatusin with [R20S/R21G]]”, the “Increase in Activity” value is reported as “+”. With “Engineered persulcatusin with [Mutation S7-140-7, Engineered persulcatusin with [R16G/F29V]]” the “Increase in Activity” value was “+”. With “Engineered persulcatusin with [Mutation S7-192-22, Engineered persulcatusin with [F6L/N7D/H14Q]]” the “Increase in Activity” value was “++”. In the case of “Engineered persulcatusin with [Mutation S7-144-11, Engineered persulcatusin with [R16S/R20S]]”, the “Increase in Activity” value is reported as “++”. For “Engineered persulcatusin with [Mutation S7-140-18, Engineered persulcatusin with [N7D/R16S]]”, the “Increase in Activity” value was “+”. “Engineered persulcatusin with [Mutation S7-192-4, Engineered persulcatusin with [N7D/H14F/R16S]]” was tested, and the “Increase in Activity” value was “++”. For “Engineered persulcatusin with [Mutation S7-192-26, Engineered persulcatusin with [F6L/G9D/H14Q]]”, the “Increase in Activity” value was “+++”. “Engineered persulcatusin with [Mutation S7-192-7, Engineered persulcatusin with [G9D/H14Q]]” was tested, and the “Increase in Activity” value was “++”. “Engineered persulcatusin with [Mutation S7-140-2, Engineered persulcatusin with [R13S]]” was tested, and the “Increase in Activity” value was “+”. In the case of “Engineered persulcatusin with [Mutation S7-144-59, Engineered persulcatusin with [R13S/R16K]]”, the “Increase in Activity” value is reported as “+”. With “Engineered persulcatusin with [Mutation S7-144-43, Engineered persulcatusin with [R13S/L28M]]” the “Increase in Activity” value was “+”. “Engineered persulcatusin with [Mutation S7-176-5-1, Engineered persulcatusin with [F6L/G9D/R20K]]” was tested, and the “Increase in Activity” value was “++”. With “Engineered persulcatusin with [Mutation S7-156-22, Engineered persulcatusin with [G9D/I18F/F29L]]” the “Increase in Activity” value was “+”. For “Engineered persulcatusin with [Mutation S7-156-36, Engineered persulcatusin with [F6S/R13S/R16K/I18V]]”, the “Increase in Activity” value was “++”. In the case of “Engineered persulcatusin with [Mutation S7-140-8, Engineered persulcatusin with [R21G]]”, the “Increase in Activity” value is reported as “+”. For “Engineered persulcatusin with [Mutation S7-140-1, Engineered persulcatusin with [R13S/I18N]]”, the “Increase in Activity” value was “+”. For “Engineered persulcatusin with [Mutation S7-140-34, Engineered persulcatusin with [R13S/R20T]]”, the “Increase in Activity” value was “++”.
